Test results from patent US20240246942A1, “KINASE INHIBITORS FOR THE TREATMENT OF NEURODEGENERATIVE DISEASES” (priority 2020, published 2024).

Assays:
Test in all cases: biochemical
[1] = target: T1, panel of 374 wild-type kinases (Homo sapiens, UniProt O14733); conditions: read-out: % Enzyme Activity (relative to DMSO controls), MKK7
T1 construct: purchased Reaction Biology Corporation
T1 sequence (O14733 1-419): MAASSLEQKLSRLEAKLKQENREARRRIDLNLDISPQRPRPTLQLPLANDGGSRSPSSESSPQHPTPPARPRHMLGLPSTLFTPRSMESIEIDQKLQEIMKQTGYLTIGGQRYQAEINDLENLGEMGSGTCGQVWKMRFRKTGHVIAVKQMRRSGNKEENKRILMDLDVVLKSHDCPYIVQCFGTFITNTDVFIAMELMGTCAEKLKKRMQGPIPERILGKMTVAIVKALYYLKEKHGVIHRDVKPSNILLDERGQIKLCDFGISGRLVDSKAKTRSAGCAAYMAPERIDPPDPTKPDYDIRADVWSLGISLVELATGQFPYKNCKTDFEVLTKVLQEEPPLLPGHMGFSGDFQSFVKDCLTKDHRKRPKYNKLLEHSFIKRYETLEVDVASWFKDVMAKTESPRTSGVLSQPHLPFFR

[2] = target: T2, panel of 374 wild-type kinases (Homo sapiens, UniProt Q9NRM7); conditions: read-out: % Enzyme Activity (relative to DMSO controls), LATS2
T2 construct: purchased Reaction Biology Corporation
T2 sequence (Q9NRM7 1-1088): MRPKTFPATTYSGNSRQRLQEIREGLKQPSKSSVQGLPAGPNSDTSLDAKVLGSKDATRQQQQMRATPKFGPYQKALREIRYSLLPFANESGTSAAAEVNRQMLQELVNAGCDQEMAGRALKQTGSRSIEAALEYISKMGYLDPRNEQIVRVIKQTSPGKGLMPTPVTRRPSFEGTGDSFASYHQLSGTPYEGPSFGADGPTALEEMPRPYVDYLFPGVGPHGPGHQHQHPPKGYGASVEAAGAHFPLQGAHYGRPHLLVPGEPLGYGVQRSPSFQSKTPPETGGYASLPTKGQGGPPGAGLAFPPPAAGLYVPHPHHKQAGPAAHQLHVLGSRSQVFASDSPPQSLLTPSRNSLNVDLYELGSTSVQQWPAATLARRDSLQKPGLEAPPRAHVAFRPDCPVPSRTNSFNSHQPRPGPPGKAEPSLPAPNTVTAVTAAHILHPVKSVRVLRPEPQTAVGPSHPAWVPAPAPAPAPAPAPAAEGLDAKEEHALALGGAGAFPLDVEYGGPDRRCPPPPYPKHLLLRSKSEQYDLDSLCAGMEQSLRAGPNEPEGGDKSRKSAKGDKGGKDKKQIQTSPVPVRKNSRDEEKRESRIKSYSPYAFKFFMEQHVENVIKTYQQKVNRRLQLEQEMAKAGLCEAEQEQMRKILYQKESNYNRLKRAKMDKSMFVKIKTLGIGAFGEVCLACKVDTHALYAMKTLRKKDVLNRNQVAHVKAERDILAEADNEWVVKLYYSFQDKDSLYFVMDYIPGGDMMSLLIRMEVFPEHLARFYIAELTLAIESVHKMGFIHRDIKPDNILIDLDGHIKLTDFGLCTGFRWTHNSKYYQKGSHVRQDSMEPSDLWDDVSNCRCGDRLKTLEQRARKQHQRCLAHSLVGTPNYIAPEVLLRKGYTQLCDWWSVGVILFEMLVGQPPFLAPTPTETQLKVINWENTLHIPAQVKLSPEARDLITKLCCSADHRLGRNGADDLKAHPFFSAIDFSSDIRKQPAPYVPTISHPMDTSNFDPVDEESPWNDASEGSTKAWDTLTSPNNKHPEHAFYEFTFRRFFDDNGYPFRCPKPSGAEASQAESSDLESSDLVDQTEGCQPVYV

[3] = target: T3, panel of 374 wild-type kinases (Homo sapiens, UniProt P05771); conditions: read-out: % Enzyme Activity (relative to DMSO controls), kinase PKCb1
T3 construct: purchased Reaction Biology Corporation

[4] = target: T4, panel of 374 wild-type kinases (Homo sapiens, UniProt Q9BXA6); conditions: read-out: % Enzyme Activity (relative to DMSO controls), kinase SSTK/TSSK6
T4 construct: purchased Reaction Biology Corporation

[5] = target: T5, panel of 374 wild-type kinases (Homo sapiens, UniProt Q8N4C8); conditions: read-out: % Enzyme Activity (relative to DMSO controls), MINK/MINK1
T5 construct: purchased Reaction Biology Corporation

[6] = target: T6, panel of 374 wild-type kinases (Homo sapiens, UniProt P06213); conditions: read-out: % Enzyme Activity (relative to DMSO controls), IR
T6 construct: purchased Reaction Biology Corporation

[7] = target: T7, panel of 374 wild-type kinases (Homo sapiens, UniProt P46734); conditions: read-out: % Enzyme Activity (relative to DMSO controls), MEK3
T7 construct: purchased Reaction Biology Corporation
T7 sequence (P46734 1-347): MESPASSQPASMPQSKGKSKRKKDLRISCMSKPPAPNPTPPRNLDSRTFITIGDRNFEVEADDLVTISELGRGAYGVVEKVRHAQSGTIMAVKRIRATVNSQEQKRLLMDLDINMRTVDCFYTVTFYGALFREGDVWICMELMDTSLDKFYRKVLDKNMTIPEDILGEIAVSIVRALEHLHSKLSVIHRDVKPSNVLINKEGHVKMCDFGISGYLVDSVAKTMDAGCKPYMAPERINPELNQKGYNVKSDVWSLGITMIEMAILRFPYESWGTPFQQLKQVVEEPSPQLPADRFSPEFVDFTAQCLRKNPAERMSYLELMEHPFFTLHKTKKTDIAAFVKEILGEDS

[8] = target: T8, panel of 374 wild-type kinases (Homo sapiens, UniProt Q9H422); conditions: read-out: % Enzyme Activity (relative to DMSO controls), HIPK3
T8 construct: purchased Reaction Biology Corporation

[9] = target: T9, panel of 374 wild-type kinases (Homo sapiens, UniProt P32298); conditions: read-out: % Enzyme Activity (relative to DMSO controls), GRK4
T9 construct: purchased Reaction Biology Corporation

[10] = target: T10, panel of 374 wild-type kinases (Homo sapiens, UniProt Q9HBY8); conditions: read-out: % Enzyme Activity (relative to DMSO controls), kinase SGK2
T10 construct: purchased Reaction Biology Corporation
T10 sequence (Q9HBY8 whole entry): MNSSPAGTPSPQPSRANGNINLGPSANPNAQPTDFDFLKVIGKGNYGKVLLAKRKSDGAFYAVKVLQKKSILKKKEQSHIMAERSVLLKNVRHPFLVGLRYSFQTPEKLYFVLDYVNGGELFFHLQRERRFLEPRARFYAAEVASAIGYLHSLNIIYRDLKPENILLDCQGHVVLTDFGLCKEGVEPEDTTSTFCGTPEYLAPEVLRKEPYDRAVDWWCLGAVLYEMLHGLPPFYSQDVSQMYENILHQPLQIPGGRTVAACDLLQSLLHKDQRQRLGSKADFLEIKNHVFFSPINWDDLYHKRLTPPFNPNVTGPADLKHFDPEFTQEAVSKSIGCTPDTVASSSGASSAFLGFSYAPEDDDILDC

T3 sequence (P05771 whole entry): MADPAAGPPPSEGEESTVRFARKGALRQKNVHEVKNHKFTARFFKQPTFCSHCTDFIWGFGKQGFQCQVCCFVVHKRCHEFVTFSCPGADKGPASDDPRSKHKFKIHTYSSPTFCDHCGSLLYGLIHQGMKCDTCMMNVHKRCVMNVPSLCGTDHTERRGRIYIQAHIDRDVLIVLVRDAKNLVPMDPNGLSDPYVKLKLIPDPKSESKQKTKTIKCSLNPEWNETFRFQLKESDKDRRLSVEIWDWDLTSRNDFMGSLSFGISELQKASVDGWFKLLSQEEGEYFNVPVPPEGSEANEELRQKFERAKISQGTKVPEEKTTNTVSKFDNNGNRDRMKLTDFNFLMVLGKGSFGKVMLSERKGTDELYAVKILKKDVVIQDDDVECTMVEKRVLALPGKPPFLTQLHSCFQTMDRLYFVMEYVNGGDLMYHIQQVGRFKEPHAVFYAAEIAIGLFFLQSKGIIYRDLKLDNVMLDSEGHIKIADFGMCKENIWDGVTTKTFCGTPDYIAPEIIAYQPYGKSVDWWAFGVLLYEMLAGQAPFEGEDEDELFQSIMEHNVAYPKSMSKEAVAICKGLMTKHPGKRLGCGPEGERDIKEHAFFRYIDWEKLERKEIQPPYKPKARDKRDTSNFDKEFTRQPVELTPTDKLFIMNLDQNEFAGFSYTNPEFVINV
T8 sequence (Q9H422 whole entry): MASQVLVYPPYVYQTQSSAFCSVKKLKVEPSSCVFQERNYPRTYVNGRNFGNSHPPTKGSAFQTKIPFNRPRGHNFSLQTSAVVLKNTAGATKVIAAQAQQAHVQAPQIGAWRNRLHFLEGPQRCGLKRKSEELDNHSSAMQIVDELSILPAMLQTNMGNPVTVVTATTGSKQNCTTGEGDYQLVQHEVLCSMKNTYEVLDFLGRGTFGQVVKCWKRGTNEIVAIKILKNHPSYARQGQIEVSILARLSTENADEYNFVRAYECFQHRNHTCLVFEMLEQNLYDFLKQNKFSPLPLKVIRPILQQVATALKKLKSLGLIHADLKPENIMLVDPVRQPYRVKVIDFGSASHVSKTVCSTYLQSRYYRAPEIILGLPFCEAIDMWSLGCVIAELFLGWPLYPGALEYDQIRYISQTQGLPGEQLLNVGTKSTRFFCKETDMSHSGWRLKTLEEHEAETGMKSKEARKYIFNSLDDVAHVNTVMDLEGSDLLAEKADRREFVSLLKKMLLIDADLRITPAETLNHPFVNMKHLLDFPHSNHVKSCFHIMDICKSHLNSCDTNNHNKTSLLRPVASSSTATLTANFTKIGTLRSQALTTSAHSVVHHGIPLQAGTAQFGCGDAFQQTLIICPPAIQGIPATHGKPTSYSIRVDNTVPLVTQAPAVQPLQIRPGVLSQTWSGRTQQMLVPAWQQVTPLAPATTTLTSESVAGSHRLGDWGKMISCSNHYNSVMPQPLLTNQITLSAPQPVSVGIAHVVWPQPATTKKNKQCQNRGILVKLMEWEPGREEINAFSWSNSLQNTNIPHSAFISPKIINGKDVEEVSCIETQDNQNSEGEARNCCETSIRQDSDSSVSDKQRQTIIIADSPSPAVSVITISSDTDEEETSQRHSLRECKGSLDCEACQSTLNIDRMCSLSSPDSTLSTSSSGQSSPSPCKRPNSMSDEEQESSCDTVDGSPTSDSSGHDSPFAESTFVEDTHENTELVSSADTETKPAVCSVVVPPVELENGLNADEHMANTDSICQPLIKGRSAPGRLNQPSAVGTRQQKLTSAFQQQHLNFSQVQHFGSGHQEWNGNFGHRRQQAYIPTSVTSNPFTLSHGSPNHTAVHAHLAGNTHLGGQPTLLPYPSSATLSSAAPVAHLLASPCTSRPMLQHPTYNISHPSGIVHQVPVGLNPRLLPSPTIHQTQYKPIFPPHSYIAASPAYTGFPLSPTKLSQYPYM
T9 sequence (P32298 whole entry): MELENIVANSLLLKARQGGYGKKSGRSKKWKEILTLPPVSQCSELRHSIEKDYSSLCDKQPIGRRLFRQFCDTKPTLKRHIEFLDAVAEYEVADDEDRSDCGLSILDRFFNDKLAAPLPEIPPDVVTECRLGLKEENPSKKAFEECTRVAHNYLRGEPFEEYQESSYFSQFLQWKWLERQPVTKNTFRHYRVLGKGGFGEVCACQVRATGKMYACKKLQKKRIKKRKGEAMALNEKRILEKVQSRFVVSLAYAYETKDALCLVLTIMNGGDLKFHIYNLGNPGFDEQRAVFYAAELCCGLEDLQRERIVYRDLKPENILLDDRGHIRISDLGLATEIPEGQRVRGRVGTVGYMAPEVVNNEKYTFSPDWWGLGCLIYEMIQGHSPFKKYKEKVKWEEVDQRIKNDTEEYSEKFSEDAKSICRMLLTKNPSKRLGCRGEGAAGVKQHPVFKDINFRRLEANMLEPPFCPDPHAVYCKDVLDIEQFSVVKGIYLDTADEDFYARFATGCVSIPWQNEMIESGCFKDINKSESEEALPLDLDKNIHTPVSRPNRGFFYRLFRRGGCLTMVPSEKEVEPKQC
T4 sequence (Q9BXA6 whole entry): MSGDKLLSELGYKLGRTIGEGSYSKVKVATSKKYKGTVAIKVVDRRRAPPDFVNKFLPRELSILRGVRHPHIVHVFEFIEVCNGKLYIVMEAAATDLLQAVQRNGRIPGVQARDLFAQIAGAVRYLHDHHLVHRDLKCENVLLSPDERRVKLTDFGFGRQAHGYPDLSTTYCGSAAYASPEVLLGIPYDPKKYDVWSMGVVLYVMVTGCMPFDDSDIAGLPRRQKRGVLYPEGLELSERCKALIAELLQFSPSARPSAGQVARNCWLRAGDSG
T6 sequence (P06213 28-1382): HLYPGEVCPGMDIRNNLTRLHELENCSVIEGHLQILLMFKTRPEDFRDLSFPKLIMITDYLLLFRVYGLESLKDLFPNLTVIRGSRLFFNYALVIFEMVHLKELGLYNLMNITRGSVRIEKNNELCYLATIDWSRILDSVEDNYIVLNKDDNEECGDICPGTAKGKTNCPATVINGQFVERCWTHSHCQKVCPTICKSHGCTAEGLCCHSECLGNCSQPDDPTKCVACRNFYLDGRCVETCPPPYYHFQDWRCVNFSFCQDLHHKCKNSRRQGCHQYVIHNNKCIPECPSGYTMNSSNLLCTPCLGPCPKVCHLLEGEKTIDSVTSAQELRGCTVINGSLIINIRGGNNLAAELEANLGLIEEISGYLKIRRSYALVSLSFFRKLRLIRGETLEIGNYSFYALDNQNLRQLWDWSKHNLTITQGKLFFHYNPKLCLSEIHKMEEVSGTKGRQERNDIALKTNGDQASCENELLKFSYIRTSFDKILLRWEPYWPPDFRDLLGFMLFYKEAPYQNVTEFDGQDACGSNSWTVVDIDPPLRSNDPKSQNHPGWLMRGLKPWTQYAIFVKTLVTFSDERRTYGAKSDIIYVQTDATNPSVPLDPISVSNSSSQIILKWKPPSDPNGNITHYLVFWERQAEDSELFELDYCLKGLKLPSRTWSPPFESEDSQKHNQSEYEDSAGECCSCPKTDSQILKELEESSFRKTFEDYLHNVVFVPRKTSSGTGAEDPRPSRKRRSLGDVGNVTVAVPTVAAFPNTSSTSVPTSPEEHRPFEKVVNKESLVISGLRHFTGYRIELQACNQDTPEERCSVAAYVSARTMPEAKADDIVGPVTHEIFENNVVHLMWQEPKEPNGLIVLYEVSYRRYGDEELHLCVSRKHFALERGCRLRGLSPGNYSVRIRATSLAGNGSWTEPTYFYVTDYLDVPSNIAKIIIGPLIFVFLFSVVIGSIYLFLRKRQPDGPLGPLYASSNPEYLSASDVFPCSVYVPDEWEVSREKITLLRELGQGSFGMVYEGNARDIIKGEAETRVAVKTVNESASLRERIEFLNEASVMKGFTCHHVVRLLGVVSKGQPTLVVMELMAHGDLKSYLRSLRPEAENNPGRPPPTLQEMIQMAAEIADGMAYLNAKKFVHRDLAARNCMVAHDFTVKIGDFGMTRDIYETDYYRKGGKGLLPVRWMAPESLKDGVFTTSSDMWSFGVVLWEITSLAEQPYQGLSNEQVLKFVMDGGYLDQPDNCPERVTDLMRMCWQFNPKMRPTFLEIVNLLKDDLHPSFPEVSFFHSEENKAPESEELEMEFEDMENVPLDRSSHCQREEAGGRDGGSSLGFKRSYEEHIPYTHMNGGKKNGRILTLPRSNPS

O=C(Nc1cnn(-c2csc(C(=O)NC3COC3)c2)c1)Nc1ccccc1Cl [Compound 17, 4-(4-(3-(2-chlorophenyl)ureido)-1H-pyrazol-1-yl)-N-(oxetan-3-yl)thiophene-2-carboxamide]
remaining activity at 5 µM [1]: 112% | remaining activity at 5 µM [2]: 96% | remaining activity at 5 µM [3]: 102% | remaining activity at 5 µM [4]: 103% | remaining activity at 5 µM [5]: 79.4% | remaining activity at 5 µM [6]: 98.4% | remaining activity at 5 µM [7]: 104% | remaining activity at 5 µM [8]: 97.6% | remaining activity at 5 µM [9]: 97% | remaining activity at 5 µM [10]: 101%

O=C(Nc1cnn(-c2csc(C(=O)NC3COC3)c2)c1)Nc1c(F)cccc1Cl [Compound 25, 4-(4-(3-(2-chloro-6-fluorophenyl)ureido)-1H-pyrazol-1-yl)-N-(oxetan-3-yl)thiophene-2-carboxamide]
remaining activity at 5 µM [1]: 135% | remaining activity at 5 µM [2]: 104% | remaining activity at 5 µM [3]: 100% | remaining activity at 5 µM [4]: 103% | remaining activity at 5 µM [5]: 62.2% | remaining activity at 5 µM [6]: 102% | remaining activity at 5 µM [7]: 111% | remaining activity at 5 µM [8]: 98.8% | remaining activity at 5 µM [9]: 93.6% | remaining activity at 5 µM [10]: 88.6%

Cc1sc(C(=O)NC2COC2)cc1-n1cc(NC(=O)Nc2c(F)cccc2Cl)cn1 [Compound 27, 4-(4-(3-(2-chloro-6-fluorophenyl)ureido)-1H-pyrazol-1-yl)-5-methyl-N-(oxetan-3-yl)thiophene-2-carboxamide]
remaining activity at 10 µM ([1]; 10 uM): 120% | remaining activity at 10 µM ([2]; 10 uM): 94.7% | remaining activity at 10 µM ([3]; 10 uM): 111% | remaining activity at 10 µM ([4]; 10 uM): 94% | remaining activity at 10 µM ([5]; 10 uM): 102% | remaining activity at 10 µM ([6]; 10 uM): 85.5% | remaining activity at 10 µM ([7]; 10 uM): 88.8% | remaining activity at 10 µM ([8]; 10 uM): 88.5% | remaining activity at 10 µM ([9]; 10 uM): 113% | remaining activity at 10 µM ([10]; 10 uM): 97.2%
